The source of these data is ChEMBL document CHEMBL1158550, “The cytotoxic styryl lactone goniothalamin is an inhibitor of nucleocytoplasmic transport” (Bioorg Med Chem Lett, 2010).

Calls of active or inactive are those of the source. No cut-off for these calls is given here.

For assay [1], the target named is Exportin-1 (Homo sapiens) (UniProt O14980). Nature of the assay: Inhibition of CRM1-mediated nuclear export of Rio2 in human HeLa cells at 1 uM. Format: cell-based.
The test system of assay [2] is MDA-MB-231. In words: Cytotoxicity against human MDA-MB-231 cells. The assay is classed as functional, cell-based.
Assay [3] concerns MDA-MB-231. In words: Induction of apoptosis in human MDA-MB-231 cells. The assay is classed as functional, cell-based.
Assay [4] has as its target Exportin-1 (Homo sapiens) (UniProt O14980). Nature of the assay: Inhibition of CRM1-mediated nuclear export of Rio2 in human HeLa cells at 2 uM. The assay is classed as cell-based.

Sequence of Exportin-1 (Homo sapiens) (O14980 whole entry): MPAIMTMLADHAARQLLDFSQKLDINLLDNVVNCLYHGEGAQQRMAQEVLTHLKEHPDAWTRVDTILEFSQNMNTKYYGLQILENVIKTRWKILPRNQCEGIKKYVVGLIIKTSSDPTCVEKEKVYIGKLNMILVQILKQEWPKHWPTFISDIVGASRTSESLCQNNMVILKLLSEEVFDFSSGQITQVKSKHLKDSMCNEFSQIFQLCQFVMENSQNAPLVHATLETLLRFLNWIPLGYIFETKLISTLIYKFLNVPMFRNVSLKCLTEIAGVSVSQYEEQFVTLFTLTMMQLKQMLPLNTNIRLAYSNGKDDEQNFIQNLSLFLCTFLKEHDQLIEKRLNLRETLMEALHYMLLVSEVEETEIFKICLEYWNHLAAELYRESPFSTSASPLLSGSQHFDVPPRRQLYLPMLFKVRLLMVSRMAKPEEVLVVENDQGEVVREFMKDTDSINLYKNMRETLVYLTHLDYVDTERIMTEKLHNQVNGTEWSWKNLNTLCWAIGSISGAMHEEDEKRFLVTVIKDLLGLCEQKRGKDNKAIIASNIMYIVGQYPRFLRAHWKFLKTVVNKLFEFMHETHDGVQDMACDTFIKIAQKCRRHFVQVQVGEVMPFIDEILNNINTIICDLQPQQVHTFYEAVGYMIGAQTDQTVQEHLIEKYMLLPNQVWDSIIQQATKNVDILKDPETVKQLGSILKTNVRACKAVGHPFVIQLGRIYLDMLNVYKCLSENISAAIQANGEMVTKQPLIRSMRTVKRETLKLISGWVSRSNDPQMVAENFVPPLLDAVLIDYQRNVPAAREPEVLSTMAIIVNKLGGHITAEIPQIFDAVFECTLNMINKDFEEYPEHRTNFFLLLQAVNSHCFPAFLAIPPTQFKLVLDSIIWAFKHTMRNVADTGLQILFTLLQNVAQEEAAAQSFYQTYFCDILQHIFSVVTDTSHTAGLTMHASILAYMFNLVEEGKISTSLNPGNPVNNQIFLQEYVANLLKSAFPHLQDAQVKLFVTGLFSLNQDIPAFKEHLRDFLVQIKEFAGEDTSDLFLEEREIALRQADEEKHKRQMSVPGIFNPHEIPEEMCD

A word on the IC50: it is the point on the concentration scale where inhibition reaches its midpoint. Lower therefore signals greater potency. With `O=C1C=CC[C@H](/C=C/c2ccccc2)O1` [GONIOTHALAMIN], in assay [1], the inhibition result was “Active”. In addition, half-maximal inhibition in the assay on MDA-MB-231 [2] (IC50) was put at 1.46 µM. For the same molecule, the outcome with MDA-MB-231 [3] was Active.

As to `O=C1C=CC[C@H](c2ccccc2)O1`, the inhibition result in assay [4] is “inactive”.

Take `O=C1C=CC[C@H](Cc2ccccc2)O1`: the inhibition result in assay [4] is “inactive”.

On to `O=C1C=CC[C@H](c2ccc(-c3ccccc3)cc2)O1`, for which the inhibition entry in assay [4] was “inactive”.

For the molecule `O=C1C=CC[C@H](C#C/C=C/c2ccccc2)O1`, the inhibition entry in assay [4] is “inactive”.
